Reference: patent US20080118980A1, “Estrogen Enhancing Differentiation of Human Mesenchymal Stromal Cells and Adipose-derived Stromal Cells” (The Board of Trustees of the University of Illinois,, priority 2006, published 2008)

How the values were obtained:
[1] = tested on: human bone marrow mesenchymal stem cells (MSCs); experiment: Proliferation of human bone marrow MSCs in basic medium with E2 or E3 (MTS, Example 3); format: cell-based
Experimental: This study investigates the mitogenic effects of estrogen receptor ligands on human bone marrow MSCs that is not contacted with osteogenic or adipogenic medium. Purified human bone marrow mesenchymal stem cells (MSCs) were purchased commercially. MSCs were respectively exposed to basic medium (DMEM+10% FBS+1% antibiotics), and basic medium supplement with 10^−6 and 10^−9 M 17-β estradiol (E2) and estriol (E3) for approximately one week. Then, various cells were plated into 96-well plates in 500 cells/well and continued to be exposed to the media. After 4 days, cell densities were measured by MTS methods and compared to initial densities. FIG. 8 illustrates the increase of the number of MSCs after being treated with basic medium and basic medium supplemented with E2 or E3.

human ASCs = experiment: Osteogenic differentiation of ASCs modulated by E2 (Example 2); format: cell-based
Experimental: Because estrogen receptors (ERs) exist in adipose tissues (Dieudonne et al. (2004) Am J Physiol Cell Physiol. 286:C655-661), it is hypothesized that estrogen can also modulate the differentiation potentials of ASCs. All the experiments using human ASCs were performed under an approved IRB protocol of the University of Illinois at Chicago. Human abdomen subcutaneous adipose tissue was obtained from a healthy person with lipo-aspirated surgery. ASCs were isolated from adipose tissue according to previous studies (Hong et al. (2006) Cells Tissues Organs. 183 (3):133-40). Briefly, adipose tissue was finely minced and then digested with 0.075 wt % collagenase type I (Sigma, St Louis, Mo.) at 37° C. for 45 min with intermittent shaking. The cells were collected by filtration with a cell strainer with pore size of 100 μm diameter (Fisher Scientific, Barrington, Ill.). The harvested cells were cultured in a Dulbecco's Modified Eagle's Medium (DMEM), 15% fetal bovine serum (FBS) and 1% antibiotic-antimycotic at 10^6 cells/100 mm dish. Upon reaching 80-90% confluence, the isolated cells were trypsinized, counted, and subcultured at a density of 10^5 cells/100 mm dish as passage-1. The cells used for study are passage-3.
The basic medium supplemented with 100 nM dexamethasone, 10 mM β-glycerophosphate, and 0.05 mM ascorbic acid-2-phosphate was used to differentiate ASCs into an osteogenic cell lineage. Human ASCs were seeded at a cell density of 10^4 cells/cm^2 on 12-well plates and 100 mm petri dishes. Upon reaching 70% confluence, counting as day-0, the cells were exposed to osteogenic differentiation medium supplemented with different concentrations of E2 (from 10^−8 to 10^−11 M). On day 7, the cells cultured on petri dishes were collected for assessment of gene expressions of osteogenic specific markers and estrogen receptors (ERs) by reverse transcriptase polymerase chain reaction (RT-PCR) analysis. On day 14, the cells cultured in 12-well plates were analyzed for DNA, extracellular matrix, alkaline phosphatase (ALP) activity and calcium content.
On the defined day, cells cultured in 12-well plates were washed twice with phosphate buffered solution (PBS), suspended and lysed in 1% Triton-X100 solution (Sigma, St. Louis, Mo.). The collected cells were subsequently homogenized using sonication (Dismembrator Model 100, Fisher Scientific, Barrington, Ill.). The DNA content in the cells was determined by a fluorometric assay using a spectrofluorometer and DNA quantification kit (Hoechst 33258, Bio-Rad, Hercules, Calif.). The total protein concentrations of lysates were measured by a simple colorimetric assay based on the Bradford dye-binding procedure (Bio-Rad, Hercules, Calif.). The amount of protein was normalized by the unit of DNA.
ALP activity was assessed qualitatively by ALP staining. The cultured cells were fixed in 10% paraformaldehyde and incubated with 120 mM Tris buffer, pH 8.4, containing 0.9 mM Naphtol AS-MX Phosphate (Sigma, St. Louis, Mo.) and 1.8 mM Fast Red TR. After 45 min at room temperature, the cultures were washed with deionized water. Mineral deposition in the extracellular matrix was presented by von Kossa staining. The fixed cells were incubated in 2.5% (w/v) silver nitrate (Sigma, St. Louis, Mo.) solution for 30 min in sunlight. In order to quantify ALP activity and calcium content, cultured cells were washed twice with PBS, suspended and lysed in 0.5 ml of 1% Triton-X100 solution. ALP and calcium content were measured by spectrophotometry with a colorimetric kit according to the manufacturer's instructions (Raichem, San Diego, Calif.).
Total RNA was extracted from the various differentiated cells using TRizol reagent (Invitrogen, Carlsbad, Calif.). Approximately 5 μg of total RNA was converted to single stranded cDNA using a commercial cDNA synthesis kit (Invitrogen, Carlsbad, Calif.). […]

Question: `C[C@]12CC[C@@H]3c4ccc(O)cc4CC[C@H]3[C@@H]1CC[C@@H]2O` [E2, 17-β estradiol] was tested. Which “cell proliferation (MTS assay and cell counting)” value ([1]; 10^−6 and 10^−9 M, about one week then 4 days in 96-well plates, FIG. 8) did it give?
Answer: The value was “greatly increased”.

Question: What about the “differentiation capabilities (adipogenic and osteogenic) of modulated MSCs” value ([1]; vs controls) of the same molecule?
Answer: The value was “maintain their differentiation capabilities”.

Question: And the “OCN expression (RT-PCR)” value (human ASCs; 7 days, estrogen supplement 10^−8 M)?
Answer: Its value is “only expressed”.

Question: And the “ERβ expression (RT-PCR)” value (human ASCs; 7 days, estrogen supplement 10^−11 M)?
Answer: Its value is “light bands”.

Question: And the “ALP and cbfa-1 expression (RT-PCR bands)” value (human ASCs; 7 days, vs cells grown in the absence of estrogen, FIG. 4)?
Answer: The value was “intense bands”.

Question: And the “staining for ALP and von Kossa” value (human ASCs; ASCs, osteogenic medium supplemented with E2)?
Answer: The value was “Intense staining”.

Question: And the ALP activities (human ASCs; E2 10^−9 and 10^−8 M, after 14 days, FIG. 5B)?
Answer: The ALP activities was “significantly improved”.

Question: And the “proliferation during osteogenesis (DNA content)” value (human ASCs; day 14, FIG. 5A)?
Answer: Its value is “does not increase proliferation”.

Question: And the “calcium content (mineralization of the extracellular matrix)” value (human ASCs; day 14, most notably at 10^−8 M, FIG. 5D)?
Answer: The value was “significantly increased”.

Question: What about the “protein content (extracellular matrix synthesis)” value (human ASCs; day 14, normalized by DNA, FIG. 5C) of the same molecule?
Answer: The value was “increased”.
